According to US8076371B2, “Gallium compositions for the treatment of liver cancer and methods of use” (priority 2006, dated 2011):

Legend:
[1] = system: human hepatocellular carcinoma (HCC) cell lines (Hep3B, HepG2, SNU475, and Hep 40); experiment: Assessment of apoptotic cell morphology (hematoxylin and eosin, light microscope); type: cell-based; conditions: 30 μM, six days exposure; all four HCC cell lines
Experimental: (§1) The activity of gallium maltolate and gallium nitrate was studied in vitro on several human hepatocellular carcinoma (HCC) cell lines (Hep3B, HepG2, SNU475, and Hep 40). Further information on these experiments is reported by Chua et al., Anticancer Research 26:1739-1744, 2006.
Assessment of apoptotic cell morphology: After six days exposure to gallium maltolate at either 10 μM or 30 μM, cells were fixed using absolute methanol at −20° C. for 10 min, then stained with hematoxylin and eosin. Cell morphology was then observed with a light microscope.

[2] = system: poly(ADP-ribose) polymerase (PARP) in HCC cell lines; experiment: Immunoblotting, PARP assay for apoptosis; type: cell-based, human; conditions: HCC cell lines Hep 3B, Hep 40, and SNU475; 10 μM or 30 μM, six days exposure
Experimental: as §1
(§2) Immunoblotting: Cells were exposed to 10 μM or 30 μM gallium maltolate for six days; whole cell lysates were then prepared and total protein quantified using the Bradford Assay. Approximately 20 μg of protein was electrophoresed on pre-cast gels and transferred onto PVDF membranes. Non-specific sites were blocked by incubation with 5% non-fat milk in TBS-1% Tween solution for 1 hr at room temperature. Proteins were then detected with specific antibodies against CD71 (transferrin receptor 1) or PARP at recommended dilutions, followed by appropriate HRP-conjugated secondary antibodies.

[3] = system: CD71 (transferrin receptor 1) in HCC cell lines; experiment: Immunoblotting, CD71 (transferrin receptor 1) protein level; type: cell-based, human; conditions: six-day exposure to 10 μM or 30 μM; all four HCC cell lines
Experimental: as §1, §2

Q: How did the “cellular morphology (apoptosis)” value [1] turn out when Cc1occc(=O)c1[O-].Cc1occc(=O)c1[O-].Cc1occc(=O)c1[O-].[Ga+3] [gallium maltolate, tris(3-hydroxy-2-methyl-4H-pyran-4-onato)gallium] was run?
A: indicative of apoptosis

Q: And the “poly(ADP-ribose) polymerase (PARP) assay for apoptosis” value [2]?
A: positive

Q: What about the “protein level of CD71 (transferrin receptor 1)” value [3] of the same molecule?
A: dose-dependent increase
